#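 Growth conditions: 96-well plates. Treatment: test compound, 48 hours, 5 concentrations. Analysis: linear interpolation between bracketing concentrations; unreached endpoints set to highest concentration. Here, GI50 denotes the concentration required for 50% inhibition of growth.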 Calls of active or inactive are those of the source. No stated cut-off is given here; in the data, active = GI50 up to about 1.1 µM and inactive = higher.
# What was measured:
# Test in all cases: NCI-60 cell line screen, 48 h
# Hs-578T = tested on: Hs-578T
# BT-549 = tested on: BT-549
# DU-145 = tested on: DU-145
# UACC-62 = tested on: UACC-62
# DMS-114 = tested on: DMS-114
# ACHN = tested on: ACHN
# T47D = tested on: T47D
# UACC-257 = tested on: UACC-257
# HCT-116 = tested on: HCT-116
# HOP-92 = tested on: HOP-92
# KM12 = tested on: KM12
# Malme-3M = tested on: Malme-3M
# MOLT-4 = tested on: MOLT-4
# UO-31 = tested on: UO-31
# IGROV-1 = tested on: IGROV-1
# RPMI-8226 = tested on: RPMI-8226
# SF-295 = tested on: SF-295
# HL-60 = tested on: HL-60
# NCI-H522 = tested on: NCI-H522
# HCC 2998 = tested on: HCC 2998
SMILES,GI50 (Hs-578T),GI50 (BT-549),GI50 (DU-145),GI50 (UACC-62),GI50 (DMS-114),GI50 (ACHN),GI50 (T47D),GI50 (UACC-257),GI50 (HCT-116),GI50 (HOP-92),GI50 (KM12),GI50 (Malme-3M),GI50 (MOLT-4),GI50 (UO-31),GI50 (IGROV-1),GI50 (RPMI-8226),GI50 (SF-295),GI50 (HL-60),GI50 (NCI-H522),GI50 (HCC 2998)
Cc1ccc(S(=O)(=O)SC(C)(C)C)cc1,34.2 µM (inactive),22.4 µM (inactive),> 100 µM (inactive),19.9 µM (inactive),16.9 µM (inactive),38.5 µM (inactive),> 100 µM (inactive),21.6 µM (inactive),17.6 µM (inactive),63 µM (inactive),45.2 µM (inactive),> 44.4 µM (inactive),18.2 µM (inactive),> 100 µM (inactive),18.9 µM (inactive),15.3 µM (inactive),> 100 µM (inactive),18 µM (inactive),14.7 µM (inactive),> 43.5 µM (inactive)
CC1=Nc2c(O)nc(S)nc2NC(c2c(Cl)cccc2Cl)C1 (stereo unspecified),0.589 µM (active),1.24 µM (inactive),1.95 µM (inactive),1.78 µM (inactive),3.05 µM (inactive),4.86 µM (inactive),1.48 µM (inactive),3.07 µM (inactive),0.76 µM (active),9.31 µM (inactive),1.75 µM (inactive),6.11 µM (inactive),0.646 µM (active),5.19 µM (inactive),2.36 µM (inactive),0.583 µM (active),1.61 µM (inactive),0.552 µM (active),1.98 µM (inactive),10.9 µM (inactive)
CNC(=O)ON(C(C)=O)C(=O)NC [CARACEMIDE],–,19.3 µM (inactive),41.3 µM (inactive),47.6 µM (inactive),31.1 µM (inactive),18.7 µM (inactive),9.38 µM (inactive),69.5 µM (inactive),45 µM (inactive),17.9 µM (inactive),59.8 µM (inactive),44.1 µM (inactive),–,54.3 µM (inactive),86.9 µM (inactive),–,115 µM (inactive),–,21.5 µM (inactive),> 100 µM (inactive)
